Source: patent publication US7642258B2 (Allergan, Inc., priority 2002, dated 2010)
Where two headings read alike, the source gives them in different places.

Tests used:
[1] = tested on: patients with glaucoma or ocular hypertension; experiment: Clinical study: safety (adverse events, heart rate, blood pressure, visual acuity); type: in vivo
[2] = Clinical study: quantitation of plasma brimonidine and timolol concentrations; type: in vivo, patients; conditions: for concentration at 1 h: human, plasma, other: ophthalmic solution, 1 hour postdose, read-out: mean±SD plasma timolol concentration
[3] = tested on: patients with glaucoma or ocular hypertension; experiment: Clinical study: intraocular pressure (IOP) lowering, multicenter double-masked randomized parallel-group; type: in vivo; conditions: range over week 2, week 6 and month 3 (hours 0, 2, 7, 9)
Description: IOP (hours 0, 2, 7, and 9), patient satisfaction questionnaire, patient comfort of study medication questionnaire, pharmacoeconomic evaluation by investigator
All data were summarized with descriptive statistics, frequency tables, and/or data listings. Safety analyses included all patients who received at least 1 dose of study medication. Analyses were performed for the primary efficacy variable IOP using the intent-to-treat (ITT) population with last observation carried forward (LOCF), and the per protocol population with observed cases.
Continuous variables (eg, IOP) were analyzed using analysis of variance (ANOVA). Within-group changes from baseline for continuous variables were analyzed using paired t-tests.
A 2-way ANOVA model with factors for treatment and investigator was used for the analysis of IOP. Comparisons were made between the Combination and each of the 2 monotherapies in a pairwise fashion using contrasts from the ANOVA model, with the same error term. A separate ANOVA model was employed at each hour/visit measurement of IOP. […] Point estimates of the mean treatment differences, as well as 2-sided 95% confidence intervals (CI) of the difference, were provided at each timepoint.

Structure (SMILES): CC(C)(C)NC[C@H](O)COc1nsnc1N1CCOCC1.O=C(O)/C=C\C(=O)O [Timolol]
- Serious adverse events reported ([1]; % of patients): 2.0%
- discontinuation of patients due to adverse events ([1]; % of patients): 3.0%
- allergic conjunctivitis, % of patients ([1]; adverse event through month 3): (0.0%)
- allergic conjunctivitis, number of patients ([1]; adverse event through month 3): 0
- asthenia, % of patients ([1]; adverse event through month 3): (0.5%)
- asthenia, number of patients ([1]; adverse event through month 3): 1
- burning sensation in eye, % of patients ([1]; adverse event through month 3): (12.7%)
- burning sensation in eye, number of patients ([1]; adverse event through month 3): 25
- conjunctival folliculosis, % of patients ([1]; adverse event through month 3): (0.5%)
- conjunctival folliculosis, number of patients ([1]; adverse event through month 3): 1
- conjunctival hyperemia, % of patients ([1]; adverse event through month 3): (5.6%)
- conjunctival hyperemia, number of patients ([1]; adverse event through month 3): 11
- epiphora, % of patients ([1]; adverse event through month 3): (1.5%)
- epiphora, number of patients ([1]; adverse event through month 3): 3
- eye pruritus, % of patients ([1]; adverse event through month 3): (1.5%)
- eye pruritus, number of patients ([1]; adverse event through month 3): 3
- foreign body sensation, % of patients ([1]; adverse event through month 3): (2.5%)
- foreign body sensation, number of patients ([1]; adverse event through month 3): 5
- infection (body as a whole), % of patients ([1]; adverse event through month 3): (4.1%)
- infection (body as a whole), number of patients ([1]; adverse event through month 3): 8
- oral dryness, % of patients ([1]; adverse event through month 3): (0.5%)
- oral dryness, number of patients ([1]; adverse event through month 3): 1
- somnolence, % of patients ([1]; adverse event through month 3): (0.0%)
- somnolence, number of patients ([1]; adverse event through month 3): 0
- stinging sensation eye, % of patients ([1]; adverse event through month 3): (5.6%)
- stinging sensation eye, number of patients ([1]; adverse event through month 3): 11
- visual disturbance, % of patients ([1]; adverse event through month 3): (1.5%)
- visual disturbance, number of patients ([1]; adverse event through month 3): 3
- incidence of eye discharge ([1]; through month 3): 0%
- patients who experienced one or more adverse events, regardless of causality ([1]; through month 3): 50.8%
- concentration at 1 h ([2]; month 3): 0.873 ± 0.516 ng/mL
- concentration at 1 h ([2]; week 2): 0.95 ± 0.709 ng/mL
- plasma timolol concentration in males lower than in females ([2]; month 3): 39%
- plasma timolol concentration in males lower than in females ([2]; week 2): 45%
- Mean changes from baseline diurnal IOP [3]: −4.5 to −6.4 mm Hg
- Mean values of diurnal IOP [3]: 17.5 to 18.9 mm Hg

Structure (SMILES): Brc1c(N=C2NCCN2)ccc2nccnc12.O=C(O)C(O)C(O)C(=O)O [Brimonidine, 5-Bromo-6-(2-imidazolidinylideneamino)quinoxaline L-tartrate]
- Mean changes from baseline diurnal IOP [3]: −3.5 to −5.7 mm Hg
- Mean values of diurnal IOP [3]: 17.4 to 21.5 mm Hg
